Values after ≈ are worked out from the molar mass of the structure shown.
Columns and labels:
[1] = SUPPLEMENTARY: Lipophilicity (log D) Determination by high-throughput shake-flask; format: physicochemical; conditions: octanol/water
[2] = SUPPLEMENTARY: PAMPA permeability assay; format: physicochemical; conditions: read-out: Permeability
[3] = SUPPLEMENTARY: Lyophilisation Solubility Assay (LYSA); format: physicochemical; conditions: read-out: Kinetic_solubility
[4] = biological target: T1, Carnitine O-palmitoyltransferase 1, liver isoform (Homo sapiens, UniProt P50416); assay: (§1) SUPPLEMENTARY: Inhibition of Carnitine palmitoyltransferase 1, liver isoform
T1 sequence (P50416 whole entry): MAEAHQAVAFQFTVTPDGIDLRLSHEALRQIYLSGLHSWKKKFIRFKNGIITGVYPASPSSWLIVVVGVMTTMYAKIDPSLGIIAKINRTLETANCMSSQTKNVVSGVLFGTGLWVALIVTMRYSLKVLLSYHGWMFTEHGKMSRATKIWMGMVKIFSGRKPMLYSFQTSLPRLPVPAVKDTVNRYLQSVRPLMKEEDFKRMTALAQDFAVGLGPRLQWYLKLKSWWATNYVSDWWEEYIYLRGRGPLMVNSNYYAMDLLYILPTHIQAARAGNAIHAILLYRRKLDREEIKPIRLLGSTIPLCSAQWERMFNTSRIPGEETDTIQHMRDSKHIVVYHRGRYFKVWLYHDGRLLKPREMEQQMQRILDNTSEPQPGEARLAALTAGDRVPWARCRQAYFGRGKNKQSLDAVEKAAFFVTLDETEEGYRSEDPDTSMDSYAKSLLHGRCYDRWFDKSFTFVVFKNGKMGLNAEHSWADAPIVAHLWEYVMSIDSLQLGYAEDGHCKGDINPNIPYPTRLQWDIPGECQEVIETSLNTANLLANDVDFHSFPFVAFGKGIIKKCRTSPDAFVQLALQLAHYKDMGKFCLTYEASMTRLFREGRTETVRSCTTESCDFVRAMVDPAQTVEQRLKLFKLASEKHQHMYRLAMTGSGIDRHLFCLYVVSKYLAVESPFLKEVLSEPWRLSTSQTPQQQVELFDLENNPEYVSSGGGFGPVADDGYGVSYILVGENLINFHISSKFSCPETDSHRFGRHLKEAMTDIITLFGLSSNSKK

[5] = biological target: T2, Carnitine O-palmitoyltransferase 1, liver isoform (Rattus norvegicus, UniProt P32198); assay: as §1
T2 sequence (P32198 whole entry): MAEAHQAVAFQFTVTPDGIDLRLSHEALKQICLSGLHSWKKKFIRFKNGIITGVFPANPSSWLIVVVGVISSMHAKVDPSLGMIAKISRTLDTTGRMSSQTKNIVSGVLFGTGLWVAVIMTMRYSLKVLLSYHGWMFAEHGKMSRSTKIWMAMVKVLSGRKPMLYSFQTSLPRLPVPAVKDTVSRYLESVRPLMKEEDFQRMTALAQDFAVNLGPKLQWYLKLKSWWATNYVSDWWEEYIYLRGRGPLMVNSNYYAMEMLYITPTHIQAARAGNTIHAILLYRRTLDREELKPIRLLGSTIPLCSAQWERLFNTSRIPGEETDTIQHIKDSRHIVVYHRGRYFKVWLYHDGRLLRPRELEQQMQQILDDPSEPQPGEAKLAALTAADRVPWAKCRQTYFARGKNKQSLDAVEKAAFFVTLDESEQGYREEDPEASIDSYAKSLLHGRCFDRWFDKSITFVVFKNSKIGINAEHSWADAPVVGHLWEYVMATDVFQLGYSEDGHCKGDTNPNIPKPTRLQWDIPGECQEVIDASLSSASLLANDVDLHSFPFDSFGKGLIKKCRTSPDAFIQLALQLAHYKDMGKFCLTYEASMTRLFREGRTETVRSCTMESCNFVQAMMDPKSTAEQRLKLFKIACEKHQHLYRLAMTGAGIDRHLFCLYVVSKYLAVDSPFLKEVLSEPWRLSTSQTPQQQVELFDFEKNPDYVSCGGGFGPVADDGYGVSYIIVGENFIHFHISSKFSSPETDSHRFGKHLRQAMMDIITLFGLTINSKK

[6] = biological target: T3, Carnitine O-palmitoyltransferase 1, muscle isoform (Homo sapiens, UniProt Q92523); assay: SUPPLEMENTARY: Inhibition of Carnitine palmitoyltransferase 1, muscle isoform; design: species or system Muscle tissue
T3 sequence (Q92523 whole entry): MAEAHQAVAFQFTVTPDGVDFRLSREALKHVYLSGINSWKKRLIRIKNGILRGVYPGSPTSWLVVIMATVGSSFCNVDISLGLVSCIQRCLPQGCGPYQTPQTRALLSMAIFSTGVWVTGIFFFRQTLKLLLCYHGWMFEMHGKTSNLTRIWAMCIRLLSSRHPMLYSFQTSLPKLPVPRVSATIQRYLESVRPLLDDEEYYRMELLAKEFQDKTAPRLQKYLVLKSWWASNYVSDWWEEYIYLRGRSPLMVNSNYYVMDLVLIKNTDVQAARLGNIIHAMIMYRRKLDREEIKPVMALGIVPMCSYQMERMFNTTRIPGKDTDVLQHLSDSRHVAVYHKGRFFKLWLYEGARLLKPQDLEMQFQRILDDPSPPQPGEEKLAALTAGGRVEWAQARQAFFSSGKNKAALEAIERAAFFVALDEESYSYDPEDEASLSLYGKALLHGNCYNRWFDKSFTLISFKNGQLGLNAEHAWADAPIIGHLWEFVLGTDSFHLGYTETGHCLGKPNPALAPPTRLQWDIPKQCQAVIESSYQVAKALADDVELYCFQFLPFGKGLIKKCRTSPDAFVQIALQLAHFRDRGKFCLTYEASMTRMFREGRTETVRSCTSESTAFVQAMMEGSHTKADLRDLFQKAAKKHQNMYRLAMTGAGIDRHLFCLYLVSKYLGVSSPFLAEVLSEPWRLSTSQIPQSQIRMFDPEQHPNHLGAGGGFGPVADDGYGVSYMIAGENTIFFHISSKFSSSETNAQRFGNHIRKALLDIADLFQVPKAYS

[7] = biological target: T4, Carnitine O-palmitoyltransferase 2, mitochondrial (Homo sapiens, UniProt P23786); assay: (§2) SUPPLEMENTARY: Inhibition of Carnitine palmitoyltransferase 2
T4 sequence (P23786 whole entry): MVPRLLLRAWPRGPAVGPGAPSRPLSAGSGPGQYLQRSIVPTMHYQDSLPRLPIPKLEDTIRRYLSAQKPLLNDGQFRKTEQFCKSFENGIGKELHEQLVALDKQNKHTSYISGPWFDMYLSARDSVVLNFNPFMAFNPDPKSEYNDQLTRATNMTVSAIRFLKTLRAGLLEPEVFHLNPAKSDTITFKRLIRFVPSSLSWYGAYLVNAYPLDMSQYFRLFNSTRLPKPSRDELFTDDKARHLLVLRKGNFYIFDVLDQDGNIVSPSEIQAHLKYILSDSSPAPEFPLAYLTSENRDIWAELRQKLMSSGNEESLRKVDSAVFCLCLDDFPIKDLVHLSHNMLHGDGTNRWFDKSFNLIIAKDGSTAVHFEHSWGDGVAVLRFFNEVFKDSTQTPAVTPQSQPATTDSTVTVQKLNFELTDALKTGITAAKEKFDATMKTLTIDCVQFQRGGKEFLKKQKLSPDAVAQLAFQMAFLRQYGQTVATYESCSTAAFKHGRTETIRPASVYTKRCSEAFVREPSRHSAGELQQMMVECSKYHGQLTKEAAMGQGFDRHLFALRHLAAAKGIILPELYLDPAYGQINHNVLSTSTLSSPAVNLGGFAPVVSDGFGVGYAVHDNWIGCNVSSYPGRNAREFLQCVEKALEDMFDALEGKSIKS

[8] = biological target: T5, Carnitine O-palmitoyltransferase 2, mitochondrial (Rattus norvegicus, UniProt P18886); assay: as §2
T5 sequence (P18886 whole entry): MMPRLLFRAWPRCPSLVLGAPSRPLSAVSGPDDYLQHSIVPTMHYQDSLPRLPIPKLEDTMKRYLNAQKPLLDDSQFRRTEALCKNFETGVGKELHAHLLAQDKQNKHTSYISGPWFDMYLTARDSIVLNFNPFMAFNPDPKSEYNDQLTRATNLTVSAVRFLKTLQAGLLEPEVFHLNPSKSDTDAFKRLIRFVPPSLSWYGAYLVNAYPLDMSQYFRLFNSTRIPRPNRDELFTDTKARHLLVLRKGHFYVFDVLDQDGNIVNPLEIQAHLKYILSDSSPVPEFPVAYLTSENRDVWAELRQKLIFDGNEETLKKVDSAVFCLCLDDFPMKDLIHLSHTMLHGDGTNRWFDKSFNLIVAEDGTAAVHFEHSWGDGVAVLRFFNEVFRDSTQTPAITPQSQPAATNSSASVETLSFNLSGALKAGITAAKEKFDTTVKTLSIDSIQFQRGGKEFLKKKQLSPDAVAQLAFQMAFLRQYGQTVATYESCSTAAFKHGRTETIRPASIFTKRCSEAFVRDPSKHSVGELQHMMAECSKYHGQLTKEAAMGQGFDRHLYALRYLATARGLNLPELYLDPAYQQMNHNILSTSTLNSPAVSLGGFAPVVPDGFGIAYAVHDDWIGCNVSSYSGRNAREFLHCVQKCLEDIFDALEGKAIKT

Row | SMILES | logD [1] | Papp [2] [×10⁻⁶ cm/s] | solubility kinetic [3] [µg/mL] | IC50 [4] [µM] | IC50 [5] [µM] | IC50 [6] [µM] | IC50 [7] [µM] | IC50 [8] [µM]
1 | O=C(O)c1ccc(NC(=O)c2ccc3c(c2)N(S(=O)(=O)c2cccc(Cl)c2)CCO3)cc1 | 2.92 | 3.01 | 2 (≈ 4.23 µM) | 0.0664 | 0.0898 | > 100 | 94.7 | –
2 | O=C(NCc1ccccc1)[C@H]1CCCCN1C(=O)COc1ccccc1 | 2.51 | 7.12 | 43 (≈ 122 µM) | 2.55 | – | > 100 | > 100 | > 100
3 | CN(CCOc1ccc(CC2SC(=O)NC2=O)cc1)c1ccccn1 (configuration not stated) [ROSIGLITAZONE] | 2.49 | 7.65 | 92 (≈ 257 µM) | > 10 | – | > 100 | > 100 | > 100
4 | O=C(COc1ccccc1)N1CCCC[C@@H]1c1nc(-c2cccc(-c3nnco3)c2)n[nH]1 | 2.66 | 3.05 | 26 (≈ 60.4 µM) | 0.08 | 0.388 | 0.748 | 86.1 | –
5 | COc1ccc(Cl)cc1S(=O)(=O)N1CCCCc2ccc(C(=O)Nc3ccc(C(=O)O)cc3)cc21 | 1.5 | 2.9 | 211 (≈ 410 µM) | 0.289 | 0.181 | 14.5 | 17.6 | –
6 | COc1ccc(Cl)cc1S(=O)(=O)N1CCCCc2ccc(C(=O)Nc3ccc(C(=O)O)c(Cl)c3)cc21 | 0.66 | 2.54 | 36 (≈ 65.5 µM) | 0.37 | 0.188 | 3.01 | 12 | –
7 | O=C(COc1ccccc1)N1CCCCC1c1cc(-c2ccccc2)n[nH]1 (configuration not stated) | 3.63 | 0.53 | 7 (≈ 19.4 µM) | 0.159 | 0.375 | > 100 | 60.6 | –

Continued, values first:

Row | logD [1] | Papp [2] [×10⁻⁶ cm/s] | solubility kinetic [3] [µg/mL] | IC50 [4] [µM] | IC50 [5] [µM] | IC50 [6] [µM] | IC50 [7] [µM] | IC50 [8] [µM] | SMILES
8 | 2.5 | 5.44 | 431 (≈ 930 µM) | 0.217 | 0.354 | > 100 | 9.18 | – | CCN(CC)C(=O)c1cncc(-c2noc([C@H]3CCCCN3C(=O)COc3ccccc3)n2)c1
9 | 1.83 | 4.13 | > 559 | 0.165 | 0.469 | > 100 | 7.35 | – | COCCN(C)C(=O)c1cncc(-c2noc([C@H]3CCCCN3C(=O)COc3ccccc3)n2)c1
10 | 1.65 | 2.02 | 87 (≈ 207 µM) | 0.264 | 1.63 | > 100 | 23.5 | – | NNC(=O)c1cccc(-c2n[nH]c([C@H]3CCCCN3C(=O)COc3ccccc3)n2)c1
11 | 2.42 | 1.7 | 24 (≈ 53.8 µM) | 0.115 | 0.367 | > 100 | 34 | – | O=C(COc1ccccc1)N1CCCC[C@@H]1c1nc(-c2cccc(-c3n[nH]c(=O)o3)c2)n[nH]1
12 | 3.24 | 0.65 | 7 (≈ 18.4 µM) | 0.0364 | 0.0979 | > 100 | > 100 | – | O=C(COc1ccccc1)N1CCCC[C@@H]1c1nc(-c2cccc(O)c2)no1
13 | 2.19 | 3.4 | 132 (≈ 309 µM) | 0.164 | 0.244 | > 100 | > 100 | – | COc1ccc(-c2noc(C3C[S+]([O-])CCN3C(=O)COc3ccccc3)n2)cc1 (configuration not stated)
14 | 2.09 | 3.8 | 362 (≈ 859 µM) | 0.203 | 0.422 | > 100 | 88.5 | – | CNC(=O)c1cncc(-c2noc([C@H]3CCCCN3C(=O)COc3ccccc3)n2)c1
15 | 2.16 | 4.15 | 11 (≈ 27 µM) | 0.0672 | 0.205 | 30.6 | 15.6 | – | O=C(COc1ccccc1)N1CCCC[C@@H]1c1nc(-c2cccc(B(O)O)c2)no1
16 | -0.64 | 0.37 | > 547 | 0.196 | 0.594 | 45.9 | 19.8 | – | O=C(O)COc1cccc(-c2noc([C@H]3CCCCN3C(=O)COc3ccccc3)n2)c1
